In patent publication US20230287044A1, “NOVEL ANTIBACTERIAL PEPTIDE AND USE THEREOF” (priority 2020, published 2023):
≈ marks a conversion by molar mass, not a printed value. Read-outs that look alike come from different tables or passages of the source. Square brackets hold non-standard residues; d marks the D form. Peptide text beside a SMILES is read from it.

What was measured:
[1] = system: MRPA (P. aeruginosa) CCARM 2180; type: cell-based, Pseudomonas aeruginosa; conditions: CCARM 2180, 18 h
How it was run: (§1)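 Mid-log cultures grown in CAMHB and diluted to 1× 10^6 cfu/ml in PBS were mixed with an equal volume of peptide in CAMHB (80 µM to 0.63 µM twofold dilutions). MIC taken as the mean of three independent experiments.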

[2] = system: VRE (E. faecalis) ATCC 51575; type: cell-based, Enterococcus faecalis
How it was run: as §1

[3] = system: MRAB (A. baumannii) ATCC BAA 1605; type: cell-based, Acinetobacter baumannii
How it was run: as §1

[4] = Solubility of antibacterial peptides in solution; type: physicochemical
[5] = system: MRSA (S. aureus) KCCM 40510; type: cell-based, Staphylococcus aureus; conditions: KCCM 40510, 18 h
How it was run: as §1

[6] = system: 30 species of Acinetobacter baumannii (A. baumannii); type: cell-based
Method: In addition, the results obtained by measuring the minimum inhibitory concentrations of KSH29, KSH42 and KSH43 against 30 species of Acinetobacter baumannii (A. baumannii) are shown in Table 4 below.
The minimum inhibitory concentrations (MIC) against the 30 species of Acinetobacter baumannii were measured in the following manner.
The strain 1605 was purchased from ATCC (American Type Culture Collection, USA). In addition, the strain 40203 was purchased from the Korean Culture Center of Microorganisms.
The COL^R refers to resistance to colistin, the TGC^R refers to resistance to tigecycline, and the TGC^I refers to tigecycline intermediate strains.

[7] = CAMHB, 37° C., 18 hours, average of three experiments
[8] = A. baumannii strain 102 (TGC^I)
[9] = A. baumannii strain 141 (TGC^R)
[10] = A. baumannii strain 147 (TGC^R)
[11] = A. baumannii strain 152 (TGC^R)
[12] = A. baumannii strain 40203 (Korean Culture Center of Microorganisms)
[13] = against 30 species of Acinetobacter baumannii

| MIC MRPA (P. aeruginosa) CCARM 2180 [1] [µM] | MIC VRE (E. faecalis) ATCC 51575 ([2]; ATCC 51575, 18 h) [µM] | MIC MRAB (A. baumannii) ATCC BAA 1605 ([3]; ATCC BAA 1605, 18 h) [µM] | MIC MRSA (S. aureus) KCCM 40510 [5] [µM] | Molecule | solubility at 12 h ([4]; aqueous buffer) [µM] | solubility at 12 h ([4]; plasma or biological fluid) [µM] | solubility at 12 h ([4]; water) [µM] | MIC ([6]; A. baumannii strain 1) [µM] | MIC ([6]; A. baumannii strain 6 (TGC^I)) [µM] | MIC ([6]; A. baumannii strain 10) [µM] | MIC ([6]; A. baumannii strain 14) [µM] | MIC ([6]; A. baumannii strain 15) [µM] | MIC ([6]; A. baumannii strain 16) [µM] | MIC ([6]; A. baumannii strain 19) [µM] | MIC ([6]; A. baumannii strain 22 (TGC^I)) [µM] | MIC ([6]; A. baumannii strain 39) [µM] | MIC ([6]; A. baumannii strain 44) [µM] | MIC ([6]; A. baumannii strain 66) [µM] | MIC ([6]; A. baumannii strain 68) [µM] | MIC ([6]; A. baumannii strain 69) [µM] | further results |
| --- | --- | --- | --- | --- | --- | --- | --- | --- | --- | --- | --- | --- | --- | --- | --- | --- | --- | --- | --- | --- | --- |
| 5 (≈ 6.71 µg/mL) | 1.25 (≈ 1.68 µg/mL) | 1.25 (≈ 1.68 µg/mL) | 1.25 (≈ 1.68 µg/mL) | CC(C)[C@@H](NC(=O)[C@H](N)Cc1c[nH]c2ccccc12)C(=O)N[C@@H](C(=O)N[C@H](Cc1c[nH]c2ccccc12)C(=O)N[C@H](Cc1c[nH]c2ccccc12)C(=O)N[C@@H](C(=O)N[C@H](CCCNC(=N)N)C(=O)N[C@H](CCCNC(=N)N)C(=O)N[C@H](CCCNC(=N)N)C(N)=O)C(C)C)C(C)C [KSH40, wvvwwvrrr] (H-[dW][dV][dV][dW][dW][dV][dR][dR][dR]-NH2; N-terminus assumed) | ≥ 100 | 100 (≈ 134 µg/mL) | > 2000 | – | – | – | – | – | – | – | – | – | – | – | – | – | – |
| – | – | – | – | Colistin [reference compound] | – | – | – | 0.63 | 2.5 | 2.5 | 1.25 | 0.63 | <0.31 | <0.31 | 1.25 | <0.31 | 1.25 | 1.25 | 0.63 | 1.25 | MIC ([6]; A. baumannii strain 3 (COL^R)): >40 µM; MIC ([6]; A. baumannii strain 71): 1.25 µM; MIC ([6]; A. baumannii strain 76): <0.31 µM; MIC ([6]; A. baumannii strain 80): 0.63 µM; MIC ([6]; A. baumannii strain 82): 0.63 µM; MIC ([6]; A. baumannii strain 86): 0.63 µM; MIC ([6]; A. baumannii strain 89): 2.5 µM; MIC [6, 8]: 0.63 µM; MIC ([6]; A. baumannii strain 127): 0.63 µM; MIC [6, 9]: <0.31 µM; MIC ([6]; A. baumannii strain 144): 0.63 µM; MIC [6, 10]: 5 µM; MIC [6, 11]: 1.25 µM; MIC ([6]; A. baumannii strain 1605 (ATCC)): 0.63 µM; MIC ([6]; A. baumannii strain 10087): 1.25 µM; MIC ([6]; A. baumannii strain 19606): 1.25 µM; MIC [6, 12]: 0.63 µM; solubility at 12 h ([4]; read-out: Solubility in solution CAMHB): >200 µM; solubility at 12 h ([4]; read-out: Solubility in solution H2O): >2000 µM; solubility at 12 h ([4]; read-out: Solubility in solution PBS): >200 µM |
| – | – | – | – | CC[C@@H](C)[C@@H](NC(=O)[C@@H](Cc1c[nH]c2ccccc12)NC(=O)[C@H](NC(=O)[C@@H](CC(C)C)NC(=O)[C@H](N)Cc1c[nH]c2ccccc12)C(C)C)C(=O)N[C@H](Cc1c[nH]c2ccccc12)C(=O)N[C@H](CCCNC(=N)N)C(=O)N[C@H](CCCNC(=N)N)C(=O)N[C@H](CCCNC(=N)N)C(N)=O [KSH29, wlvwiwrrr] (H-[dW][dL][dV][dW][dI][dW][dR][dR][dR]-NH2; N-terminus assumed) | ≥ 100 | 50 (≈ 68.5 µg/mL) | > 2000 | 1.25 (≈ 1.71 µg/mL) | 1.25 (≈ 1.71 µg/mL) | 1.25 (≈ 1.71 µg/mL) | 1.25 (≈ 1.71 µg/mL) | 1.25 (≈ 1.71 µg/mL) | 1.25 (≈ 1.71 µg/mL) | 1.25 (≈ 1.71 µg/mL) | 1.25 (≈ 1.71 µg/mL) | 1.25 (≈ 1.71 µg/mL) | 1.25 (≈ 1.71 µg/mL) | 1.25 (≈ 1.71 µg/mL) | 1.25 (≈ 1.71 µg/mL) | 1.25 (≈ 1.71 µg/mL) | MIC ([6]; A. baumannii strain 71): 1.25 µM (≈ 1.71 µg/mL); MIC ([6]; A. baumannii strain 76): 1.25 µM (≈ 1.71 µg/mL); MIC ([6]; A. baumannii strain 82): 1.25 µM (≈ 1.71 µg/mL); MIC ([6]; A. baumannii strain 89): 1.25 µM (≈ 1.71 µg/mL); MIC [6, 8]: 1.25 µM (≈ 1.71 µg/mL); MIC ([6]; A. baumannii strain 127): 1.25 µM (≈ 1.71 µg/mL); MIC [6, 9]: 1.25 µM (≈ 1.71 µg/mL); MIC ([6]; A. baumannii strain 144): 1.25 µM (≈ 1.71 µg/mL); MIC [6, 10]: 1.25 µM (≈ 1.71 µg/mL); MIC [6, 11]: 1.25 µM (≈ 1.71 µg/mL); MIC ([6]; A. baumannii strain 10087): 1.25 µM (≈ 1.71 µg/mL); MIC ([6]; A. baumannii strain 19606): 1.25 µM (≈ 1.71 µg/mL); MIC [6, 12]: 1.25 µM (≈ 1.71 µg/mL); MIC50 [6, 13]: 1.25 µM (≈ 1.71 µg/mL); MIC90 [6, 13]: 1.25 µM (≈ 1.71 µg/mL) |
| 2.5 (≈ 3.48 µg/mL) | 1.25 (≈ 1.74 µg/mL) | 1.25 (≈ 1.74 µg/mL) | 1.25 (≈ 1.74 µg/mL) | CC(C)[C@@H](NC(=O)[C@H](N)Cc1c[nH]c2ccccc12)C(=O)N[C@@H](C(=O)N[C@H](Cc1c[nH]cn1)C(=O)N[C@@H](C(=O)N[C@@H](C(=O)N[C@H](Cc1c[nH]c2ccccc12)C(=O)N[C@H](CCCNC(=N)N)C(=O)N[C@H](CCCNC(=N)N)C(=O)N[C@H](CCCNC(=N)N)C(N)=O)C(C)C)C(C)C)C(C)C [KSH45, wvvhvvwrrr] (H-[dW][dV][dV][dH][dV][dV][dW][dR][dR][dR]-NH2; N-terminus assumed) | > 200 | 50 (≈ 69.6 µg/mL) | > 2000 | – | – | – | – | – | – | – | – | – | – | – | – | – | – |

| Molecule | MIC MRPA (P. aeruginosa) CCARM 2180 [1] [µM] | MIC VRE (E. faecalis) ATCC 51575 ([2]; ATCC 51575, 18 h) [µM] | MIC MRAB (A. baumannii) ATCC BAA 1605 ([3]; ATCC BAA 1605, 18 h) [µM] | MIC MRSA (S. aureus) KCCM 40510 [5] [µM] | solubility at 12 h ([4]; aqueous buffer) [µM] | solubility at 12 h ([4]; plasma or biological fluid) [µM] | solubility at 12 h ([4]; water) [µM] | MIC ([6]; A. baumannii strain 1) [µM] | MIC ([6]; A. baumannii strain 6 (TGC^I)) [µM] | MIC ([6]; A. baumannii strain 10) [µM] | MIC ([6]; A. baumannii strain 14) [µM] | MIC ([6]; A. baumannii strain 15) [µM] | MIC ([6]; A. baumannii strain 16) [µM] | MIC ([6]; A. baumannii strain 19) [µM] | MIC ([6]; A. baumannii strain 22 (TGC^I)) [µM] | MIC ([6]; A. baumannii strain 39) [µM] | MIC ([6]; A. baumannii strain 44) [µM] | MIC ([6]; A. baumannii strain 66) [µM] | MIC ([6]; A. baumannii strain 68) [µM] | MIC ([6]; A. baumannii strain 69) [µM] | further results |
| --- | --- | --- | --- | --- | --- | --- | --- | --- | --- | --- | --- | --- | --- | --- | --- | --- | --- | --- | --- | --- | --- |
| CC[C@@H](C)[C@@H](NC(=O)[C@@H](Cc1c[nH]c2ccccc12)NC(=O)[C@H](NC(=O)[C@@H](CC(C)C)NC(=O)[C@H](N)Cc1c[nH]c2ccccc12)C(C)C)C(=O)N[C@H](Cc1c[nH]c2ccccc12)C(=O)N[C@H](CCCNC(=N)N)C(=O)N[C@H](CCCNC(=N)N)C(=O)N[C@H](CCC(N)=O)C(=O)N[C@H](CCCNC(=N)N)C(N)=O [KSH31, wlvwiwrrqr] (H-[dW][dL][dV][dW][dI][dW][dR][dR][dQ][dR]-NH2; N-terminus assumed) | >5 | – | – | – | ≥ 100 | 25 (≈ 37.4 µg/mL) | > 2000 | – | – | – | – | – | – | – | – | – | – | – | – | – | MIC VRE (E. faecalis) ATCC 51575 [2, 7]: 1.25 µM (≈ 1.87 µg/mL); MIC MRAB (A. baumannii) ATCC BAA 1605 [3, 7]: 1.25 µM (≈ 1.87 µg/mL) |
